Experimental data taken from patent publication US20070254951A1, “HIGH CONCENTRATION DINOTEFURAN FORMULATIONS” (priority 2006, published 2007).
Read-outs that look alike come from different tables or passages of the source.

What was measured:
[1] = Text: It is also desirable that the resulting formulation be stable. […] This is important because these conditions can be met in commerce. The crystallization would reduce the amount of insecticide in solution and reduce the efficacy of the solution applied to the animal.
[2] = formulation of Example 9
Text: The formulation of Example 9 was stored under variable temperatures up to 2 years to determine the stability of dinotefuran in solution.

CNC(=N[N+](=O)[O-])NCC1CCOC1 (stereo not drawn) [Dinotefuran, 1-{(tetrahydro-3-furanyl)methyl}-2-nitro-3-methylguanidine]
increase in concentration by including methoprene ([1]; methoprene at about 0.8% and below, compared to a similar formulation without methoprene): ~50%
increase in concentration achievable by including pyriproxyfen at low levels ([1]; phenyl methanol formulation, no crystal formation at 0° F. during a 1 month period): ~50%
dinotefuran concentration that will crystallize at 0° F. within a few days ([1]; typically, 0° F.): over 8%
Dinotefuran concentration in solution (average) ([2]; 40° F., 1 Mo): 15.03 percent by weight
Dinotefuran concentration in solution (average) ([2]; 110° F., 3 Mo): 15.33 percent by weight
Dinotefuran concentration in solution (average) ([2]; 130° F., 1 Mo): 15.22 percent by weight
Dinotefuran concentration in solution (average) ([2]; F/T, 1 Mo): 15.05 percent by weight
Dinotefuran concentration in solution (average) ([2]; INITIAL): 15.43 percent by weight
Dinotefuran concentration in solution (average) ([2]; RT (25° C.), 3 Mo): 15.17 percent by weight
Dinotefuran concentration in solution (average) ([2]; RT, 1 Yr): 15.24 percent by weight
Dinotefuran concentration in solution (average) ([2]; RT, 2 Yrs): 15.735 percent by weight
Dinotefuran concentration in solution (average) ([2]; RT, 6 Mo): 15.06 percent by weight
